Assay results as given in patent US20090215896A1, “REELIN DEFICIENCY OR DYSFUNCTION AND METHODS RELATED THERETO” (MARTEK BIOSCIENCES CORPORATION, priority 2004, published 2009).

Test system: Reelin-deficient mice (B6C3Fe a/a-Reln<rl>/J)
Assay: Reelin feeding study: number of offspring with reeler phenotype per diet group
Type: in vivo
Conditions: DHA to pregnant and lactating dam and to pups after weaning, vs DHA Deficient Diet; P=0.04
From the text: In the following experiment, the inventors tested whether LC-PUFA dietary enrichment (DHA) for mice lacking one or more normal reelin genes will correct Reelin histopathology/symptoms and will normalize the fatty acid profiles observed in Reelin-deficient mice. Specifically, the inventors evaluated whether dietary enrichment of long-chain polyunsaturated fatty acids (DHA) will correct or modulate Reelin histopathology/symptoms in Reelin-deficient mice.
Materials and Methods: The Reelin feeding study was sponsored by Martek Biosciences Corporation and initiated at Jackson Labs, Bar Harbor, Me. (Stock used: 300235 B6C3Fe a/a-Reln/J). Heterozygous females were mated with heterozygous males and received one of two experimental diets: a DHA DEFICIENT DIET (0% DHA by weight; 0.14% alpha linolenic acid by weight), or a DHA ADEQUATE DIET (0.462% DHA by weight, with 0.115% alpha linolenic acid by weight). The females continued to receive the specific diet throughout pregnancy and lactation. Homozygous, heterozygous, and wild-type pups born to pregnant females were placed on the same specific maternal diet at weaning. The number of reeler mice was recorded within each diet group. […] Pups were sacrificed at between 8 and 14 weeks of age and tissues were collected for fatty acid analysis.

For `CCC=CCC=CCC=CCC=CCC=CCC=CCCC(=O)O` [DHA, 4,7,10,13,16,19-docosahexaenoic acid], the “reduction of the incidence of male reeler animals” value was ~3 fold.
